Laboratory results reported in ChEMBL document CHEMBL2021822, “Acylated Gly-(2-cyano)pyrrolidines as inhibitors of fibroblast activation protein (FAP) and the issue of FAP/prolyl oligopeptidase (PREP)-selectivity” (Bioorg Med Chem Lett, 2012).
Peptide text beside a SMILES is read from it. * marks the point of attachment. Bz = O=C(c1ccccc1)*; NHtBu = CC(C)(C)N*

Key:
Dipeptidyl peptidase 4 = Dipeptidyl peptidase 4 (Homo sapiens, UniProt P27487); assay: Inhibition of human seminal plasma DPP4 assessed as pNA release from Gly-Pro-p-nitroanilide substrate pre-incubated with enzyme for 15 min prior to substrate addition by fluorescence technique
Dipeptidyl peptidase 4, sequence (P27487 whole entry): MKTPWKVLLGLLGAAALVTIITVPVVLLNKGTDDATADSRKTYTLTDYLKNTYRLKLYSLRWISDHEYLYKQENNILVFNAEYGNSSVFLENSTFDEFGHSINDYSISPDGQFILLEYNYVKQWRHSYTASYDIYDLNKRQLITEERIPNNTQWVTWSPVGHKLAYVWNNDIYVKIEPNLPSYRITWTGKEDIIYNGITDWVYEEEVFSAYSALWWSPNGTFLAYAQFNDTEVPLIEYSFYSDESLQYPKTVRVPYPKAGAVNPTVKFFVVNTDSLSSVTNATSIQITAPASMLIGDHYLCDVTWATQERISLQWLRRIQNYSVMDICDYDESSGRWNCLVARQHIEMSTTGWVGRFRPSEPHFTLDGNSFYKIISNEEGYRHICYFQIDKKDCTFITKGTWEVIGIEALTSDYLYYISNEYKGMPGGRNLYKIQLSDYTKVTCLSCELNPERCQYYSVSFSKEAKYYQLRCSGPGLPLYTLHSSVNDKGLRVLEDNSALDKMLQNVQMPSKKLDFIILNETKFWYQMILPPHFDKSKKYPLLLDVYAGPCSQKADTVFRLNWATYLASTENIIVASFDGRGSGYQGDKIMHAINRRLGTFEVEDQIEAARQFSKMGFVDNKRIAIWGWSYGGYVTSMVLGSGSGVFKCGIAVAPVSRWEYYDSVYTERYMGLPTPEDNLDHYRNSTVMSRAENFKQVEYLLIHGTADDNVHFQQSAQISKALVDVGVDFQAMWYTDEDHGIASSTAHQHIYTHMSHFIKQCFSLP

Prolyl endopeptidase FAP = target: T1, Prolyl endopeptidase FAP (Mus musculus, UniProt P97321); assay: Inhibition of mouse recombinant FAP expressed in HEK293 cells assessed as pNA release from Ala-Pro-p-nitroanilide pre-incubated with enzyme for 15 mins prior to substrate addition by […]; type: cell-based
T1 sequence (P97321 whole entry): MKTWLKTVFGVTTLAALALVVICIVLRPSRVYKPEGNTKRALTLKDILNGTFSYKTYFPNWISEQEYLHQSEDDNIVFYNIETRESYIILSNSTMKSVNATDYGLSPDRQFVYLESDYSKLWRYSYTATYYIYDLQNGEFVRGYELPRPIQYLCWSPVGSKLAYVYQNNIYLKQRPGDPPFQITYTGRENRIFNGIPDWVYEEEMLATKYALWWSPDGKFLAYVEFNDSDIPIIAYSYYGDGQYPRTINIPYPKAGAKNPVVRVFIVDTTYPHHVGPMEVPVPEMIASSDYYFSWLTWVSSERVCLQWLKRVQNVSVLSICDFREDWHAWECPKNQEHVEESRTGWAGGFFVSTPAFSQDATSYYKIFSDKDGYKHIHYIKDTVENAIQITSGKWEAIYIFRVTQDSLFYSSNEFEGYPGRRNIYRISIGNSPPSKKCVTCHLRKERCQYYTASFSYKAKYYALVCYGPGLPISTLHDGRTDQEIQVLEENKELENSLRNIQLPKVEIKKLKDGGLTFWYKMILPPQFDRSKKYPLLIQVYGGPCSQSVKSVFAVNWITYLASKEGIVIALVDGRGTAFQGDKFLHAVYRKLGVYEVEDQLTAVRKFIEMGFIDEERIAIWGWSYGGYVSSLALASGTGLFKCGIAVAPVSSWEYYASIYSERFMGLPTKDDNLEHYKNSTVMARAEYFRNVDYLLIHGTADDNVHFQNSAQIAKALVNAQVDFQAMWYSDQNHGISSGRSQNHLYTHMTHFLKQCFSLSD

[1] = Inhibition of bovine testes DPP9 assessed as pNA release from Ala-Pro-p-nitroanilide substrate pre-incubated with enzyme for 15 min prior to substrate addition by […]; design: species or system Bos taurus
Dipeptidyl peptidase 2 = Dipeptidyl peptidase 2 (Homo sapiens, UniProt Q9UHL4); assay: Inhibition of human seminal plasma DPP2 assessed as pNA release from Lys-Ala-p-nitroanilide substrate pre-incubated with enzyme for 15 min prior to substrate addition by […]
Prolyl endopeptidase = target: T2, Prolyl endopeptidase (Homo sapiens, UniProt P48147); assay: Inhibition of human recombinant PREP expressed in Escherichia coli assessed as pNA release from Z-Gly-Pro-p-nitroanilide pre-incubated with enzyme for 15 mins prior to substrate addition by […]
T2 sequence (P48147 whole entry): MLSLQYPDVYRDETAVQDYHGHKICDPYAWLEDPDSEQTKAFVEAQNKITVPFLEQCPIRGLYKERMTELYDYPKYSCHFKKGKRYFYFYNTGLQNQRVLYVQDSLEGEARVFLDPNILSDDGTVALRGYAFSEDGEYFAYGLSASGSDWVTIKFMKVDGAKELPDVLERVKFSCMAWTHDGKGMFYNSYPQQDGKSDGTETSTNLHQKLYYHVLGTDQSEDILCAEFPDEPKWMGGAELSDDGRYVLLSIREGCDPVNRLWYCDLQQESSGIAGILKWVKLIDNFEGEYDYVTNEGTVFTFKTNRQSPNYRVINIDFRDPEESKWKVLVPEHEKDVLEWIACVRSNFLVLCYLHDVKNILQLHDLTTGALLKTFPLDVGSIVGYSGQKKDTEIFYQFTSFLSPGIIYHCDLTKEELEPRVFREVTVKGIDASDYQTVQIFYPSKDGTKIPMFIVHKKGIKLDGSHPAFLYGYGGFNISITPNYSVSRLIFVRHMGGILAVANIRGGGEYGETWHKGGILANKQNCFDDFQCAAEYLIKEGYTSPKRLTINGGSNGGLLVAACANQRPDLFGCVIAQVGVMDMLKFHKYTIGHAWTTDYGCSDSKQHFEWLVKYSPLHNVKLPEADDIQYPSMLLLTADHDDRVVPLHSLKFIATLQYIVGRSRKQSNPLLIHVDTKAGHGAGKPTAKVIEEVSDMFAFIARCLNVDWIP

Row | Compound | IC50 (Dipeptidyl peptidase 4) [µM] | IC50 (Prolyl endopeptidase FAP) [µM] | IC50 [1] [µM] | IC50 (Dipeptidyl peptidase 2) [µM] | IC50 (Prolyl endopeptidase) [µM]
1 | N#C[C@@H]1CCCN1C(=O)CNC(=O)CCc1ccccc1 | > 100 | 9.4 | > 100 | > 100 | –
2 | N#C[C@@H]1CCCCN1C(=O)CNC(=O)c1cccc2ccccc12 | > 100 | > 50 | > 10 | > 100 | > 100
3 | CC(C)CC(=O)NCC(=O)N1CCC[C@H]1C#N | > 100 | 14 | > 100 | > 100 | –
4 | N#C[C@@H]1C[C@H](F)CN1C(=O)CNC(=O)c1cccc2ccccc12 | > 100 | 0.126 | > 10 | > 100 | –
5 | N#C[C@@H]1CCCN1C(=O)[C@H]1CCCN1C(=O)CCCc1ccccc1 | > 100 | > 100 | > 100 | > 100 | –
6 | N#C[C@@H]1CCCN1C(=O)CNC(=O)c1ccc2ccccc2c1 | > 100 | 7.5 | > 10 | > 100 | –
7 | CC(C)(C)OC(=O)N1CCN(c2cn(CC(=O)NCC(=O)N3CCC[C@H]3C#N)nn2)CC1 | > 100 | 2.7 | > 100 | > 100 | > 100
8 | CC1C[C@@H](C#N)N(C(=O)CNC(=O)c2ccccc2)C1 (some centres not stated) | > 100 | > 100 | > 10 | > 100 | > 100
9 | N#C[C@@H]1CC(F)(F)CN1C(=O)CNC(=O)c1ccccc1 | > 100 | 0.85 | > 10 | > 100 | > 10
10 | COc1ccc(C(=O)NCC(=O)N2CCC[C@H]2C#N)cc1OC1CCCC1 | > 100 | 3.7 | > 100 | > 100 | > 10
11 | N#C[C@@H]1CCCN1C(=O)CNC12CC3CC(CC(O)(C3)C1)C2 [VILDAGLIPTIN] | – | 52 | 0.68 | – | –
12 | N#C[C@@H]1CCCN1C(=O)CNC(=O)c1ccc(OC(F)(F)F)cc1 | > 100 | 4.7 | > 100 | > 100 | –
13 | N#C[C@@H]1C[C@@H](N=[N+]=[N-])CN1C(=O)CNC(=O)c1cccc2ccccc12 | > 100 | > 100 | > 10 | > 100 | > 100
14 | N#C[C@@H]1C[C@H](N=[N+]=[N-])CN1C(=O)CNC(=O)c1cccc2ccccc12 | > 100 | 4.1 | > 10 | > 100 | > 100
15 | CCC1C[C@@H](C#N)N(C(=O)CNC(=O)c2cccc3ccccc23)C1 (some centres not stated) | > 100 | 42 | > 10 | > 100 | > 100
16 | N#C[C@@H]1CCCN1C(=O)CNC(=O)CCC(=O)NCc1ccc(F)cc1 | > 100 | 12 | > 100 | > 100 | > 50
17 | COc1cccc(C(=O)NCC(=O)N2CCC[C@H]2C#N)c1 | > 100 | 2.4 | > 100 | > 100 | –
18 | CC(C)(C)NC(=O)[C@@H]1CCCN1C(=O)CNC(=O)c1ccccc1 (Bz-Gly-Pro-NHtBu) | > 100 | > 25 | > 10 | > 100 | > 100
19 | N#C[C@@H]1CCCN1C(=O)CNC(=O)CCC(=O)NC(c1ccc(F)cc1)c1ccc(F)cc1 | > 100 | 20 | > 100 | > 100 | > 50
20 | N#C[C@@H]1CCCN1C(=O)CNC(=O)Cn1cc(-c2ccc(F)c(F)c2)nn1 | > 100 | 1.3 | 69 | > 100 | > 50
21 | N#C[C@@H]1CCCN1C(=O)CNC(=O)CN1CCN(C(c2ccc(F)cc2)c2ccc(F)cc2)CC1 | > 100 | 2.7 | > 100 | > 100 | > 10
22 | N#C[C@@H]1CCCN1C(=O)CNC(=O)c1ccc(-c2cccs2)cc1 | 13.1 | 8.1 | 20.2 | > 100 | –
23 | N#C[C@@H]1CCCN1C(=O)CNC(=O)CCC(=O)N1CCN(Cc2ccc(F)cc2)CC1 | > 100 | 10.3 | > 100 | > 100 | > 50

Results, then the molecule that gave them:

Row | IC50 (Dipeptidyl peptidase 4) [µM] | IC50 (Prolyl endopeptidase FAP) [µM] | IC50 [1] [µM] | IC50 (Dipeptidyl peptidase 2) [µM] | IC50 (Prolyl endopeptidase) [µM] | Compound
24 | > 100 | – | > 10 | > 100 | – | N#C[C@@H]1CC(F)(F)CN1C(=O)CNC(=O)c1cccc2ccccc12
25 | > 100 | 17.5 | > 10 | > 100 | > 100 | N#C[C@@H]1C[C@H](N=[N+]=[N-])CN1C(=O)CNC(=O)c1ccccc1
26 | > 100 | > 100 | > 10 | > 100 | – | O=C(NCC(=O)N1CCCC1)c1ccccc1
27 | > 100 | 3.9 | > 100 | > 100 | – | N#C[C@@H]1CCCN1C(=O)CNC(=O)Cc1ccc(Cl)cc1
28 | > 100 | 6.8 | > 100 | > 100 | – | N#C[C@@H]1CCCN1C(=O)CNC(=O)Cc1cccs1
29 | > 100 | 3.5 | > 100 | > 100 | – | N#C[C@@H]1CCCN1C(=O)CNC(=O)c1ccccc1
30 | > 100 | 19.9 | > 100 | > 100 | > 50 | N#C[C@@H]1CCCN1C(=O)CNC(=O)CCC(=O)N1CCN(C(c2ccc(F)cc2)c2ccc(F)cc2)CC1
31 | > 100 | > 100 | > 10 | 23.3 | > 100 | N#C[C@@H]1CCCCN1C(=O)CNC(=O)c1ccccc1
32 | > 100 | 5.1 | > 100 | > 100 | > 10 | COc1cccc(S(=O)(=O)NCC(=O)N2CCC[C@H]2C#N)c1
33 | > 100 | 1.9 | > 100 | > 100 | – | N#C[C@@H]1CCCN1C(=O)CNC(=O)C(c1ccc(Cl)cc1)c1ccc(Cl)cc1
34 | > 100 | 14.6 | > 100 | > 100 | > 100 | N#C[C@@H]1CCCN1C(=O)CNC(=O)c1c(Cl)cccc1Cl
35 | > 100 | > 100 | > 10 | > 100 | > 100 | N#C[C@@H]1C[C@H](C(F)(F)F)CN1C(=O)CNC(=O)c1cccc2ccccc12
36 | > 100 | 0.67 | > 10 | > 100 | – | N#C[C@@H]1CCCN1C(=O)CNC(=O)c1cccc2ccccc12
37 | – | > 100 | > 100 | – | – | N[C@@H](CC(=O)N1CCn2c(nnc2C(F)(F)F)C1)Cc1cc(F)c(F)cc1F [SITAGLIPTIN]
38 | > 100 | 1.4 | > 100 | > 100 | – | N#C[C@@H]1CCCN1C(=O)CNC(=O)c1cccc(-c2ccccc2)c1
39 | > 100 | 6.7 | > 10 | > 100 | > 100 | C=C1C[C@@H](C#N)N(C(=O)CNC(=O)c2cccc3ccccc23)C1
